Test results published in US20210386367A1, “DEVICES AND SYSTEMS FOR GASTROINTESTINAL MICROBIOME DETECTION AND MANIPULATION” (Progenity, Inc., priority 2018, published 2021).
≈ marks a conversion by molar mass, not a printed value. Where “and” joins values, the source holds several entries; their conditions need not be identical. Equal entries are not always repeated. Where two headings read alike, the source gives them in different places.

Assays:
Format in all cases: cell-based
Streptococcus spp. = assay: Broth microdilution MIC, 54 clinical isolates; details: for Mode: modal MIC
Description: (§1) Minimal inhibitory concentration (MIC) values were determined by broth microdilution or agar dilution in accordance with guidelines from the Clinical and Laboratory Standards Institute (CLSI; (1) “Methods for Dilution Antimicrobial Susceptibility Tests for Bacteria That Grow Aerobically; Approved Standard; 11th ed.” CLSI standard M07-A11, 2018; (2) “Performance Standards for Antimicrobial Susceptibility Testing; Twenty-Eighth Informational Supplement,” CLSI document M100-S28, 2018; and (3) “Methods for Antimicrobial Susceptibility Testing of Anaerobic Bacteria; Approved Standard—Eighth Edition,” CLSI document M11-A8, 2012).
(§2) Tested aerobically by broth microdilution: • Escherichia coli, n=50 • Klebsiella spp., n=50 • Pseudomonas aeruginosa, n=50 • Streptococcus spp., n=50 • Staphylococcus aureus, n=50 • Enterococcus faecalis, n=50 • Enterobacter aerogenes, n=50 • Proteus mirabilis, n=50
(§3) Broth microdilution testing of aerobic bacteria was conducted in cation-adjusted Mueller Hinton broth (MHBII). For testing streptococci, lysed horse blood (LHB) was added to MHBII broth at a final concentration of 3%. Where LHB was used, it was added after filtering.
(§4) Broth microdilution susceptibility testing in 96-well microplates was conducted in accordance with CLSI methods (1) and (2). Automated liquid handlers were used to conduct serial dilutions and liquid transfers, including the Multidrop 384 (Labsystems, Helsinki, Finland), Biomek 2000, and the Biomek FX (Beckman Coulter, Fullerton, Calif.). All wells in columns 2 through 12 of a standard 96-well microdilution plate (Costar 3795) were filled with 150 μL of the appropriate diluent. Then, 300 μL of the test agents were added to the wells of column 1 of the plates at 100× the highest final concentration to be tested. Serial two-fold dilutions were made across the rows through column 11 using the Biomek 2000. The wells of column 12 contained no drug and served as the growth control wells. This plate served as the “mother plate” from which MIC assay plates or “daughter plates” were made.
(§5) The daughter plates were loaded with 190 μL per well of the appropriate medium using the Multidrop 384. The daughter plates were created using the Biomek FX which transferred 2 μL of drug solution from each well of a mother plate to each corresponding well of the daughter plate in a single step. A standardized inoculum of each test organism was prepared per CLSI methods (1) to equal a 0.5 McFarland standard, followed by a dilution of 1:20 for aerobes and 1:10 for anaerobes. The plates were then inoculated with 10 μL of the diluted inoculum using the Biomek 2000 from low to high drug concentration, resulting in a final concentration of approximately 5×10^5 CFU/mL per well. An un-inoculated plate was incubated in parallel for each medium for the purpose of assessing solubility of the drug in the test media.
(§6) Inoculated plates were stacked 3 or 4 high, covered with a sterile lid on the top plate, placed into boxes with CO2 planchets (streptococci) or plastic bags (all other isolates). Plates were incubated at 35° C. for 16-24 hr in ambient air for aerobes or for 42-48 hr in the anaerobic environment of the Bactron II anaerobe chamber (Sheldon Manufacturing Co.; Cornelius, Oreg.). Following incubation, the microplates were removed from the incubator and viewed from the bottom using a plate viewer. The MIC values were read and recorded as the lowest concentration of drug that inhibited visible growth of the organism as per CLSI methods (1) and (2).

[1] = test system: Enterococcus faecalis clinical isolates; assay: MIC distribution against clinical isolates
From the text: (§7) As used herein, “minimum inhibitory concentration” or “MIC” refers to the lowest concentration of an antimicrobial agent, for example, an antimicrobial agent as described herein, required to inhibit the growth of an organism.
(§8) Many susceptibility testing methods are known in the art and can be used as described herein (see, e.g., Jorgensen and Ferraro (2009) Clinical Infectious Diseases 49:1749-1755; and Maurer et al. (2017) Infectious Disease Reports 9:6839; the entire contents of each of the foregoing are incorporated herein by reference). For example, antimicrobial susceptibility can be determined using conventional culture based methods such as the broth or agar dilution test. In these dilution tests, the bacterial isolate of interest is inoculated onto different media that include serial dilutions of an antimicrobial agent, and incubated under appropriate conditions (e.g., overnight at 37° C.) to allow for growth to occur. Following the incubation period, the media is examined to determine bacterial growth. The lowest concentration of antibiotic that prevents growth represents the minimal inhibitory concentration (MIC). Broth dilution tests can be miniaturized and mechanized allowing for reproducibility and high throughput.

[2] = test system: Staphylococcus aureus clinical isolates; assay: MIC distribution against clinical isolates; details: 50 S. aureus isolates
From the text: as §7, §8

Klebsiella spp. = assay: Broth microdilution MIC, 50 clinical isolates (20 K. oxytoca, 30 K. pneumoniae)
Description: as §1, §2, §3, §4, §5, §6

[3] = 54 Streptococcus spp. clinical isolates
[4] = 54 Streptococcus spp. clinical isolates, MXF by FDA breakpoints
[5] = MIC >32 μg/mL, 50 E. faecalis isolates
[6] = MIC 0.06 μg/mL, 50 E. faecalis isolates
[7] = MIC 0.5 μg/mL, 50 E. faecalis isolates
[8] = MIC 2 μg/mL, 50 E. faecalis isolates
[9] = MIC 4 μg/mL, 50 E. faecalis isolates
[10] = MIC 8 μg/mL, 50 E. faecalis isolates
[11] = MIC >8 μg/mL, 50 E. faecalis isolates

Penicillin was tested, and the MIC50 (Streptococcus spp.; [3]) was 0.03 µg/mL, the MIC90 (Streptococcus spp.; [3]) was 0.25 µg/mL and the MIC range (Streptococcus spp.; [3]) was ≤0.004-1^ μg/mL. The “% I” value (Streptococcus spp.; [4]) was 11% ^, the “% S” value (Streptococcus spp.; [4]) was 89% and the Mode (Streptococcus spp.; [3]) was 0.03 µg/mL.

For `CN[C@H](CC(C)C)C(=O)N[C@H]1C(=O)N[C@@H](CC(N)=O)C(=O)N[C@H]2C(=O)N[C@H]3C(=O)N[C@H](C(=O)N[C@H](C(=O)O)c4cc(O)cc(O)c4-c4cc3ccc4O)[C@H](O)c3ccc(c(Cl)c3)Oc3cc2cc(c3O[C@@H]2O[C@H](CO)[C@@H](O)[C@H](O)[C@H]2O[C@H]2C[C@](C)(N)[C@H](O)[C@H](C)O2)Oc2ccc(cc2Cl)[C@H]1O` [vancomycin, Vancomycin], the MIC range (Streptococcus spp.; [3]) was 0.25 to 1 µg/mL, the “% S” value (Streptococcus spp.; [4]) was 100% and the MIC50 (Streptococcus spp.; Streptococcus) was 0.25 µg/mL (≈ 0.173 µM). The MIC90 (Streptococcus spp.; Streptococcus) was 0.5 µg/mL (≈ 0.345 µM), the Mode (Streptococcus spp.; [3]) was 0.25 µg/mL and the “Cumulative percentage of isolates inhibited at MIC” value [1, 5] was 100.0%. The “Number of test isolates at MIC” value [1, 5] was 13, the “Cumulative percentage of isolates inhibited at MIC” value ([1]; listed as VAN) was 48.0% and 64.0% and 72.0% and 74.0% and the “Cumulative percentage of isolates inhibited at MIC” value ([2]; MIC 1 μg/mL) was 100.0%.

`COc1c(N2C[C@@H]3CCCN[C@@H]3C2)c(F)cc2c(=O)c(C(=O)O)cn(C3CC3)c12` [moxifloxacin] was tested, and the MIC range (Streptococcus spp.; [3]) was 0.06 to 8 µg/mL, the MIC50 (Streptococcus spp.; 54 Streptococcus spp. clinical isolates, read-out: MIC50) was 0.12 µg/mL (≈ 0.299 µM) and the MIC90 (Streptococcus spp.; 54 Streptococcus spp. clinical isolates, read-out: MIC90) was 0.5 µg/mL (≈ 1.25 µM). The Mode (Streptococcus spp.; [3]) was 0.12 µg/mL, the MIC range (Klebsiella spp.) was 0.015 to 128 µg/mL and the Mode (Klebsiella spp.) was 0.06 µg/mL. For the same molecule, the “Cumulative percentage of isolates at MIC” value (Klebsiella spp.; 0.015 μg/mL) was 2.0%, the “Number of test isolates at MIC” value (Klebsiella spp.; 0.015 μg/mL) was 1 and the “Cumulative percentage of isolates at MIC” value (Klebsiella spp.; 0.03 μg/mL) was 8.0%. The “Number of test isolates at MIC” value (Klebsiella spp.; 0.03 μg/mL) was 3, the “Cumulative percentage of isolates at MIC” value (Klebsiella spp.; 0.06 μg/mL) was 56.0% and the “Number of test isolates at MIC” value (Klebsiella spp.; 0.06 μg/mL) was 24. For the same molecule, the “Cumulative percentage of isolates at MIC” value (Klebsiella spp.; 0.5 μg/mL) was 77.0%, the “Number of test isolates at MIC” value (Klebsiella spp.; 0.5 μg/mL) was 2 and the “Cumulative percentage of isolates at MIC” value (Klebsiella spp.; 1 μg/mL) was 74.0%. For the same molecule, the “Number of test isolates at MIC” value (Klebsiella spp.; 1 μg/mL) was 1, the “Cumulative percentage of isolates at MIC” value (Klebsiella spp.; 2 μg/mL) was 80.0% and the “Number of test isolates at MIC” value (Klebsiella spp.; 2 μg/mL) was 3. For the same molecule, the “Cumulative percentage of isolates at MIC” value (Klebsiella spp.; 4 μg/mL) was 84.0%, the “Number of test isolates at MIC” value (Klebsiella spp.; 4 μg/mL) was 2 and the “Cumulative percentage of isolates at MIC” value (Klebsiella spp.; 16 μg/mL) was 88.0%. The “Number of test isolates at MIC” value (Klebsiella spp.; 16 μg/mL) was 2, the “Cumulative percentage of isolates at MIC” value (Klebsiella spp.; 32 μg/mL) was 94.0% and the “Number of test isolates at MIC” value (Klebsiella spp.; 32 μg/mL) was 3. For the same molecule, the “Cumulative percentage of isolates at MIC” value (Klebsiella spp.; 64 μg/mL) was 96.0%, the “Number of test isolates at MIC” value (Klebsiella spp.; 64 μg/mL) was 1 and the “Cumulative percentage of isolates at MIC” value (Klebsiella spp.; 128 μg/mL) was 100.0%. The “Number of test isolates at MIC” value (Klebsiella spp.; 128 μg/mL) was 2, the MIC50 (Klebsiella spp.; Klebsiella, read-out: MIC50) was 0.06 µg/mL (≈ 0.149 µM) and the MIC90 (Klebsiella spp.; Klebsiella, read-out: MIC90) was 32 µg/mL (≈ 79.7 µM). The “Cumulative percentage of isolates inhibited at MIC” value [1, 6] was 2.0%, the “Number of test isolates at MIC” value [1, 6] was 1 and the “Cumulative percentage of isolates inhibited at MIC” value [1, 7] was 52.0%. For the same molecule, the “Number of test isolates at MIC” value [1, 7] was 4, the “Cumulative percentage of isolates inhibited at MIC” value [1, 8] was 54.0% and the “Number of test isolates at MIC” value [1, 8] was 1. The “Cumulative percentage of isolates inhibited at MIC” value [1, 9] was 56.0%, the “Number of test isolates at MIC” value [1, 9] was 1 and the “Cumulative percentage of isolates inhibited at MIC” value [1, 10] was 66.0%. The “Number of test isolates at MIC” value [1, 10] was 5, the “Cumulative percentage of isolates inhibited at MIC” value [1, 11] was 100.0% and the “Number of test isolates at MIC” value [1, 11] was 17. The “Cumulative percentage of isolates inhibited at MIC” value ([2]; MIC 0.015 μg/mL) was 14.0%, the “Number of test isolates at MIC” value ([2]; MIC 0.015 μg/mL) was 7 and the “Cumulative percentage of isolates inhibited at MIC” value ([2]; MIC 0.03 μg/mL) was 30.0%. For the same molecule, the “Number of test isolates at MIC” value ([2]; MIC 0.03 μg/mL) was 8, the “Cumulative percentage of isolates inhibited at MIC” value ([2]; MIC 0.06 μg/mL) was 48.0% and the “Number of test isolates at MIC” value ([2]; MIC 0.06 μg/mL) was 9. For the same molecule, the “Number of test isolates at MIC” value ([2]; MIC 0.5 μg/mL) was 4, the “Cumulative percentage of isolates inhibited at MIC” value ([2]; MIC 1 μg/mL) was 84.0% and the “Number of test isolates at MIC” value ([2]; MIC 1 μg/mL) was 12. For the same molecule, the “Cumulative percentage of isolates inhibited at MIC” value ([2]; MIC 2 μg/mL) was 94.0%, the “Number of test isolates at MIC” value ([2]; MIC 2 μg/mL) was 5 and the “Cumulative percentage of isolates inhibited at MIC” value ([2]; MIC 4 μg/mL) was 96.0%. For the same molecule, the “Number of test isolates at MIC” value ([2]; MIC 4 μg/mL) was 1, the “Cumulative percentage of isolates inhibited at MIC” value ([2]; MIC 8 μg/mL) was 98.0% and the “Number of test isolates at MIC” value ([2]; MIC 8 μg/mL) was 1. The “Cumulative percentage of isolates inhibited at MIC” value ([2]; MIC >8 μg/mL) was 100.0%, the “Number of test isolates at MIC” value ([2]; MIC >8 μg/mL) was 1 and the “Number of test isolates at MIC” value ([2]; MIC […]) was 1.
